Experimental data as given in patent publication US20240382485A1, “METHODS OF TREATING ABNORMAL CELL GROWTH” (Verastem, Inc., priority 2021, published 2024).

Columns and labels:
Assay in all cases: 2D proliferation assay (CellTiter-Glo) with synergy analysis
[1] = test system: H358 human non-small cell lung cancer (NSCLC) cells; type: cell-based; conditions: for effect of doxycycline or minocycline on anti-tumor potency: 2D culture, 7 days, CellTiter-Glo; for synergy with antibiotics in the inhibition of tumor cell proliferation: with doxycycline or minocycline, H358, FIG. 3, Bliss, Loewe, HSA and ZIP analysis
Experimental: (§1) Anti-proliferative effects of an antibiotic agent such as doxycycline (e.g., 5 or 10 μM) or minocycline (e.g., 1.25 μM) in combination with VS-6766 (e.g., 40 nM) or defactinib (e.g., 1 μM) were tested in 2D culture in 3 different human tumor cell lines.
(§2) Human cancer cell lines were grown in 2D conditions. Briefly, cells were seeded in 100 μL of growth medium. After an overnight incubation (17-22 hours), cells were treated with VS-6766+/−minocycline or doxycycline for 7 days. Alternatively, cells were treated with defactinib+/−doxycycline for 7 days. Cell viability was measured using the cell viability CellTiter-Glo assay.
Raw data and metadata files were processed with a custom R-script for single agent and combination activity. Bliss, Loewe, Highest Single Agent (HSA) and ZIP synergy analysis were performed to generate a composite synergy score (e.g., see Malyutina A et al, “Drug combination sensitivity scoring facilitates the discovery of synergistic and efficacious drug combinations in cancer,” PLOS Computational Biology 15 (5): e1006752). Summary graphics and reports were saved for visualization and further analysis.
(§3) For example, consider that drug 1 at concentration x1 and drug 2 at concentration x2 were combined to produce the inhibition effect of yc, while their respective single drug effects were y1(x1) and y2(x2). The synergy score was calculated as the difference between yc and the expected effect ye if there is no synergy. Each synergy scoring takes a different model for ye: • 1. HSA: ye is the maximal single drug effect, defining
Dose-response matrices were used to assess anti-proliferative effects of the combination of VS-6766+/−minocycline or doxycycline, and the combination of defactinib+/−doxycycline. […] H358 human non-small cell lung cancer (NSCLC) cells were grown in 2D conditions. Cells were treated with VS-6766+/−minocycline or doxycycline for 7 days. Alternatively, cells were treated with defactinib+/−doxycycline for 7 days. Cell viability was measured using the cell viability CellTiter-Glo assay.
Synergy scores were calculated using a combination of 4 different methods (Bliss, Loewe, HSA and ZIP). Human cancer cell lines were run in a CTG proliferation assay. Raw data and metadata files were processed with a custom R-script for single agent and combination activity. Bliss, Loewe, Highest Single Agent (HSA) and ZIP synergy analysis were performed to generate a composite synergy score. The example used in this figure is VS-6766+doxycycline in H358 cells.
H358 human NSCLC cells were run in a CTG proliferation assay. Raw data and metadata files were processed with a custom R-script for single agent and combination activity. Bliss, Loewe, Highest Single Agent (HSA) and ZIP synergy analysis were performed to generate a composite synergy score. […]

H2122 NSCLC = type: cell-based, human; conditions: VS-6766+doxycycline, H2122, FIG. 4; Bliss, Loewe, HSA and ZIP analysis
Experimental: as §1, §2
(§4) Raw data and metadata files were processed with a custom R-script for single agent and combination activity. Bliss, Loewe, Highest Single Agent (HSA) and ZIP synergy analysis were performed to generate a composite synergy score (e.g., see Malyutina A et al, “Drug combination sensitivity scoring facilitates the discovery of synergistic and efficacious drug combinations in cancer,” PLOS Computational Biology 15 (5): e1006752). […]
as §3, with “Each synergy scoring takes a different model for ye: • 1. HSA: ye is the maximal single drug effect, defining” left out

TOV21G ovarian cancer = type: cell-based, human; conditions: VS-6766+doxycycline, FIG. 4, Bliss, Loewe, HSA and ZIP analysis
Experimental: as §1, §2, §4
as §3, with “Each synergy scoring takes a different model for ye: • 1. HSA: ye is the maximal single drug effect, defining” left out

Question: Which “effect of doxycycline or minocycline on anti-tumor potency” value [1] does the source give for `CNS(=O)(=O)Nc1nccc(Cc2c(C)c3ccc(Oc4ncccn4)cc3oc2=O)c1F` [VS-6766] here?
Answer: Its value is “increased anti-tumor potency”.

Question: And the “synergy with antibiotics in the inhibition of tumor cell proliferation” value [1]?
Answer: The value was “synergistic”.

Question: What about the “synergy in the inhibition of tumor cell proliferation” value (H2122 NSCLC) of the same molecule?
Answer: The value was “synergistic effect”.

Question: And the “synergy in the inhibition of tumor cell proliferation” value (TOV21G ovarian cancer)?
Answer: The value was “synergistic effect”.

Question: How did the “effect of doxycycline or minocycline on anti-tumor potency” value [1] turn out when `CNC(=O)c1ccc(Nc2ncc(C(F)(F)F)c(NCc3nccnc3N(C)S(C)(=O)=O)n2)cc1` [defactinib, reference compound] was run?
Answer: The value was “increased anti-tumor potency”.

Question: What about the “synergy with antibiotics in the inhibition of tumor cell proliferation” value [1] of the same molecule?
Answer: Its value is “synergistic”.
